In patent US11001808B2, “Immortalization of epithelial cells and methods of use” (Georgetown University, priority 2010, dated 2021):
“Also recorded” adds a separate entry of the source.

Experiments:
human prostate cells = assay: Proliferation in serum-containing F medium with Rho-Rock-Myosin pathway inhibitors, Crystal Violet staining (FIG. 23); format: cell-based; settings: about 5000 cells in 6-well plates, 8 days, Y-27632 5 μM, HA-1100 20 μM, GSK429286 0.1 μM, Fasudil 30 μM, C3 transferase 2 μg/ml, Blebbistatin 5 μM
Description: FIG. 23 depicts that inhibition of the Rho-Rock-Myosin pathway prevents cells from terminally differentiating, allowing the cells to proliferate in serum-containing medium. Normally, serum-containing medium induces terminal differentiation of primary epithelial cells and, in turn, causes senescence in culture. Approximately 5000 human prostate cells were plated in 6-well plates in F medium with addition of Rock inhibitors Y-27632 (5 μM), HA-1100 (20 μM), GSK429286 (0.1 μM), Fasudil (30 μM), a Rho inhibitor (C3 transferase, 2 μg/ml), or a Mysin inihibitor (-Blebbistatin, 5 μM). Eight days later, cells were fixed and stained with 0.05% Crystal Violet.
As used herein, inhibiting ROCK can mean to reduce the activity, function or expression of at least one of ROCK1 or ROCK2. […] In general, ROCK phosphorylates LIM kinase and myosin light chain (MLC) phosphatase after being activated through binding of GTP-bound Rho. One embodiment of the present invention thus involves blocking the upstream pathway of ROCK1 and/or ROCK2, for example GTP-bound Rho, such that ROCK1 and/or ROCK2 is not activated or its activity is reduced over untreated cells. Other upstream effectors include but are not limited to, integrins, growth factor receptors, including but not limited to, TGF-beta and EGFR, cadherins, G protein coupled receptors and the like. Another embodiment of the present invention thus involves blocking the activity, function or expression of downstream effector molecules of activated ROCK1 and/or ROCK2 such that ROCK1 and/or ROCK2 can not propagate any signal or can only propagate a reduced signal over untreated cells. Downstream effectors include but are not limited to, Myosin phosphatase-targeting protein (MYPT), vimentin, LIMK, Myosin light chain kinase, NHE1, cofilin, Myosin II and the like. […] Upstream or downstream inhibition of ROCK, in place of direct ROCK inhibition and in conjunction with the other culture conditions described and required herein, may or may not generate conditionally immortalized NKE cells.

[1] = tested on: recurrent papillomatosis of the larynx; settings: patient history: interferon 1996-2010, Methotrexate 2001-03, intralesional Cidofovir 2007-2010, intralesional Avastin 2010; cited from earlier work
[2] = tested on: HPV-11-containing tumor cells from the patient; assay: Cell viability curves (CellTiter-Glo Luminescent Cell Viability Assay), patient's cultured tumor cells; format: cell-based, human; settings: for sensitivity of tumor cells compared with normal lung cells: tumor versus normal lung cells of the same patient, 24 hours
Description: (§1) Normal and tumor cells were treated with Cidofovir, Vorinostat or DHA at indicated concentration for 24 hours. Cell viabilities were measured using CellTiter-Glo® Luminescent Cell Viability Assay (Promega)
(§2) There is no data in the literature, however, analyzing the effect of these inhibitors on cells containing low-risk HPVs, because there are no cell lines established that contain HPV-6 or HPV-11. […] More importantly, this cell line was used to evaluate the sensitivity to the above inhibitors and to compare it to the sensitivity of normal lung cells isolated from the same patient (FIG. 17).
(§3) Cidovovir is the most common drug used for treating RRP.

[3] = tested on: cervical cancer cells that express the high-risk HPVs; settings: previous studies; cited from earlier work
airway epithelial cells = settings: Moore et al., 2004; cited from earlier work
normal lung cells = assay: Cell viability curves (CellTiter-Glo Luminescent Cell Viability Assay), normal cells of the same patient; settings: treated 24 hours, cell type of the LD50 not stated, taken as normal lung cells from context
Description: as §1, §2, §3

[4] = tested on: recurrent respiratory papillomatosis; assay: Vorinostat therapy of the patient, follow-up by CT scan; format: in vivo, human; settings: one patient, 400 mg/daily, 4 week cycle (3 weeks on, 1 week off)
Excerpt: A patient with recurrent papillomatosis of the larynx for 16 years was chosen for this study. The disease progressively involved not only the larynx, but had spread to the upper airway (trachea and bronchi) and recently into the lung parenchyma. The patient had had more than 350 surgeries. Besides surgeries, multiple treatments had failed, including interferon treatment (1996-2010), Methotrexate (2001-03), intralesional Cidofovir (2007-2010), and intralesional Avastin (2010). […] By October 2010, the size each lung lesion examined was increasing. During the last surgical intervention, a wedge resection of the right upper lobe was performed to remove metastatic tumor. […] Koilocytotic changes in such tumors are an indication that the tumor is producing infectious HPV. However, at the time of intervention, the type of HPV involved in this tumor had not been identified. Since the tumor had not responded to several different treatment modalities, it was also unclear how the patient would be treated following surgery.
Based on the in vitro sensitivity data, the patient was placed on Vorinostat therapy in January of 2011. The therapy consisted 4 week cycle (3 weeks on, 1 week off) of Vorinostat at 400 mg/daily. […] Thus, the use of the cell culture methods of the present invention were critical in determining a response profile of the abnormal cells, which enabled the identification of at least two chemotherapeutic agents that might be useful for treating this patient's tumors. Using the cell culture methods of the present invention, the response profile, including the genetic analysis and the therapeutic index, was generated within one week of biopsy.

[5] = tested on: human primary prostate cells; assay: In vitro growth curves under various growth conditions (FIG. 2A); format: cell-based
Description: (§4) FIGS. 2A-2B depict in vitro growth curves of human primary prostate cells and human primary mammary cells under various growth conditions. (A) PrEGM is a synthetic commercial prostate epithelial cell growth medium; (B) MEGM is a synthetic commercial mammary epithelial cell medium; Feeders are J2 mouse fibroblasts that have been irradiated or treated with mitomycin C; ROCK inhibitor is Y27632 at a concentration of 10 μM that was applied to the cells at initial plating and thereafter. The y-axis is population doublings and the x-axis is number of days. Media was changed every 3 days for all groups.
(§5) Primary HMECs and HPECs were grown under the four different conditions noted in FIG. 2. […] Feeders were the J2 mouse fibroblasts that have been gamma irradiated. The ROCK inhibitor was Y27632 at a concentration of 10 μM that was applied to the cells at initial plating and thereafter. The y-axis is population doublings and the x-axis is number of days. Media was changed every 2-3 days for all groups.
(§6) Cells grown in the presence of the feeder cells in F medium without ROCK inhibitor had about the same growth rate, i.e., the slope of the lines was about the same, but the cells grown in the presence of feeder cells eventually stopped growing.

[6] = tested on: human primary mammary cells; assay: In vitro growth curves under various growth conditions (FIG. 2B); format: cell-based
Description: as §4, §5, §6

[7] = F medium, irradiated J2 feeders, 10 μM from initial plating

**Q.** Which “suppression of serum-induced differentiation / proliferation in serum-containing medium” value (human prostate cells) does the source give for `Cc1ccc2c(c1)C(=O)C1(O)CCN(c3ccccc3)C1=N2` (stereo not shown) [Blebbistatin] here?
**A.** The value was “able to suppress cell differentiation by serum”.

**Q.** And the “suppression of serum-induced differentiation / proliferation in serum-containing medium” value (human prostate cells; listed as blebbistatin)?
**A.** Its value is “allow the cells to bypass differentiation and allow proliferation in vitro”.

**Q.** With `Nc1ccn(C[C@@H](CO)OCP(=O)(O)O)c(=O)n1` [Cidofovir] as the compound, how does the “outcome of earlier treatment” value [1] read?
**A.** The value was “failed”.

**Q.** What about the “effect on cell viability in vitro” value ([2]; very high concentrations (50-200 μM), 24 hours (FIG. 17A)) of the same compound?
**A.** The value was “completely ineffective”.

**Q.** For `C[C@H]1[C@@H](O)O[C@@H]2O[C@@]3(C)CC[C@H]4[C@H](C)CC[C@@H]1[C@@]24OO3` [DHA], which “sensitivity of tumor cells compared with normal lung cells” value [2] is on record?
**A.** Its value is “approximately 100 fold”.

**Q.** What about the “killing of cervical cancer cells” value [3] of the same compound?
**A.** Its value is “able to efficiently kill”.

**Q.** For `O=S(=O)(c1cccc2cnccc12)N1CCCNCC1` [Fasudil], which “suppression of serum-induced differentiation / proliferation in serum-containing medium” value (human prostate cells) is on record?
**A.** Its value is “able to suppress cell differentiation by serum”.

**Q.** What about the “effect of inhibition on airway epithelial cells” value (airway epithelial cells) of the same compound?
**A.** Its value is “induces membrane ruffling, loss of actin stress fibers and apoptosis”.

**Q.** For `CC1=C(C(=O)Nc2cc3cn[nH]c3cc2F)C(c2ccc(C(F)(F)F)cc2)CC(=O)N1` (stereo not shown) [GSK429286], which “suppression of serum-induced differentiation / proliferation in serum-containing medium” value (human prostate cells) is on record?
**A.** The value was “able to suppress cell differentiation by serum”.

**Q.** With `O=S(=O)(c1cccc2c(O)nccc12)N1CCCNCC1` [HA-1100] as the compound, how does the “suppression of serum-induced differentiation / proliferation in serum-containing medium” value (human prostate cells) read?
**A.** Its value is “able to suppress cell differentiation by serum”.

**Q.** With `CN(Cc1cnc2nc(N)nc(N)c2n1)c1ccc(C(=O)N[C@@H](CCC(=O)O)C(=O)O)cc1` [Methotrexate] as the compound, how does the “outcome of earlier treatment” value [1] read?
**A.** Its value is “failed”.

**Q.** Which LD50 (normal lung cells) does the source give for `O=C(CCCCCCC(=O)Nc1ccccc1)NO` [SAHA] here?
**A.** The LD50 was “approximately 200 μM”.

**Q.** What about the “sensitivity of tumor cells compared with normal lung cells” value [2] of the same compound?
**A.** The value was “approximately 100 fold”.

**Q.** What about the “lesions in more recent CT scan” value [4] of the same compound?
**A.** The value was “all lesions had stabilized”.

**Q.** What about the “lesions in subsequent CT scan” value [4] of the same compound?
**A.** Its value is “no new lesions were identified, smaller lesions were shrinking, and some larger lesions were also decreasing in size”.

**Q.** And the side effects [4]?
**A.** Its side effects is “no major side effects had been observed”.

**Q.** Which results are given for `C[C@@H](N)[C@H]1CC[C@H](C(=O)Nc2ccncc2)CC1` [Y-27632]?
**A.** suppression of serum-induced differentiation / proliferation in serum-containing medium (human prostate cells): able to suppress cell differentiation by serum; effect of inhibition on airway epithelial cells (airway epithelial cells): induces membrane ruffling, loss of actin stress fibers and apoptosis; growth (population doublings) with feeder cells in F medium plus ROCK inhibitor [5, 7]: have continued to grow; growth (population doublings) on addition of ROCK inhibitor to synthetic medium ([5]; PrEGM synthetic serum-free medium, 10 μM, no feeders): did not affect growth; growth (population doublings) with feeder cells in F medium plus ROCK inhibitor [6, 7]: have continued to grow; growth (population doublings) on addition of ROCK inhibitor to synthetic medium ([6]; MEGM synthetic serum-free medium, 10 μM, no feeders): did not affect growth

**Q.** Which “killing of cervical cancer cells” value [3] does the source give for `C[C@H]1[C@H](OC(=O)CCC(=O)O)O[C@@H]2O[C@@]3(C)CC[C@H]4[C@H](C)CC[C@@H]1[C@@]24OO3` [artesunate] here?
**A.** The value was “able to efficiently kill”.

**Q.** Which “outcome of earlier treatment” value [1] does the source give for “Avastin: intralesional Avastin, earlier treatment of the patient” here?
**A.** The value was “failed”.

**Q.** Which “suppression of serum-induced differentiation / proliferation in serum-containing medium” value (human prostate cells) does the source give for C3 transferase here?
**A.** The value was “able to suppress cell differentiation by serum; also recorded: allow the cells to bypass differentiation and allow proliferation in vitro”.
